Test results taken from patent US6692927B2, “Bax degradation involvement in tumor survival and progression” (University of South Florida, priority 2000, dated 2004).
Where a SMILES comes first, the peptide text is derived from it. [ ]: non-standard residue; d: D form. The star is where a group is joined. Nva = CCC[C@H](N)C(=O)O; Cbz = O=C(OCc1ccccc1)*

Tested on: Jurkat T cells overexpressing Bcl-2
Assay: Western blot, fractionation, RT-PCR, immunostaining and IP in Bcl-2-overexpressing Jurkat T cells
Type: cell-based, human
Conditions: for cytoplasmic Bax-immunofluorescent signals: immunofluorescent staining
Protocol: FIGS. 7A-7H show proteasome inhibitor LLnV induces Bax accumulation, cytochrome c release and PARP cleavage in Bcl-2-overexpressing Jurkat T cells. (FIGS. 7A-7C) Jurkat T cells overexpressing Bcl-2 (0 h) were treated with 50 μM LLnV for up to 8 h, followed by preparation of cytosol and mitochondrial fractions. Both fractions were immunoblotted first by an antibody to cytochrome c (Cyto C, MW 17 kDa; FIG. 7A and FIG. 7C) and then reblotted by anti-cytochrome oxidase subunit II (COX, MW 26 kDa; FIG. 7B). Note: 20 μg protein from the cytosol, and 40 μg protein from the mitochondrial, preparation was used in each lane. (FIGS. 7D-7G) Whole cell extracts (70 μg per lane) of the above treated cells were immunoblotted with specific antibodies to PARP (FIG. 7D), Bax (clone N-20; FIG. E), Bcl-2 (FIG. 7F), or actin (FIG. 7G). Molecular masses of PARP, the PARP cleavage fragment (p85), Bax, Bcl-2 and actin are 113, 85, 21, 26 and 40 kDa, respectively. Positions of protein markers are indicated at right. (FIG. 7H) Bcl-2-expressing Jurkat cells (Control) were treated with 50 μM LLnV for 8 h, followed by RT-PCR. For the first-strand cDNA synthesis, 0.2 (lanes 1, 4), 0.6 (lanes 2, 5) and 1.8 μg (lanes 3, 6) of the total RNA were used. The positions of Bax (538 bp) and G3PDH mRNA (983 bp) are indicated. Lane M is DNA molecular weight marker.
FIGS. 8A-8D show proteasome inhibition accumulates Bax to mitochondria/cytoplasm and increases interaction between Bax and Bcl-2 proteins. Jurkat cells (0 h; FIG. 8A and FIG. 8B) or Jurkat cells overexpressing Bcl-2 (0 h; FIG. 8C and FIG. 8D) were treated by either 10 μM lactacystin (FIGS. 8A-8C), 50 μM LLnV (FIG. 8D), or 50 μM LLM (FIG. 8A and FIG. 8B) for the indicated hours. (FIG. 8A and FIG. 8B) Western blotting with antibodies to PARP and Bax were performed as described in FIG. 7. (FIG. 8C) Immunohistochemistry (see MATERIALS AND METHODS). Localization of Bax protein (green) and nuclei (red) are shown. (FIG. 8D) Bax immunoprecipitates, prepared by an agarose-conjugated N-20 Bax antibody, were immunoblotted first with the 6A7 Bax antibody (upper) and then reblotted with a Bcl-2 antibody (lower).
Cell Culture and Drug Treatment: Human breast cancer MCF-7 cells, Jurkat T cells, and Jurkat T cells stably transfected with pRcCMV vector containing a complete human bcl-2 cDNA (obtained from Dr. Hong-gang Wang, Moffitt Cancer Center & Research Institute) were grown in RPMI 1640 growth medium (An et al., 1998). Treatment of cell with a proteasome inhibitor was performed as described (An et al., 1998; Dou et al., 1999).
Western blot analysis and Immunoprecipitation: Whole cell extract (An et al., 1996), whole tissue extracts (Loda et al., 1997), and cytosol and mitochondria fractions (Fang et al., 1998) were prepared as described. The enhanced chemiluminescence Western blot assay was performed as described previously (An et al., 1996). To perform a coupled immunoprecipitation-Western blot assay, a whole cell or tissue extract (200 microg protein) was first precleared by incubating with protein A plus protein G agarose beads (Calbiochem) at 4° C. for 2 hours. The collected supernatant was then incubated for at least 3 hours with either […] of agarose beads conjugated with the N20 Bax antibody (Santa Cruz Biotech), or the 6A7 Bax antibody, followed by incubation with protein A/protein G beads at 4° C. overnight. The washed Bax immunoprecipitates were boiled in SDS sample buffer and used for Western blotting with antibodies to Bax, Bcl-2 or ubiquitin.
Immunocytochemistry and Reverse Transcriptase-Polymerase Chain Reaction (RT-PCR): Immunocytochemistry was performed with the rabbit polyclonal Bax antibody (N20) and an FITO-labeled goat anti-rabbit antibody (Southern Biotech.; Birmingham, Ala.), followed by counter-staining nuclei with propidium iodide (Sigma) (Bossy-Wetzel et al., 1998). To perform RT-PCR, total RNA was isolated from Jurkat T cells by an Advantage RT-for-PCR kit (Clontech; palo Alto, Calif.). […]

SMILES: CCC[C@@H](C=O)NC(=O)[C@H](CC(C)C)NC(=O)[C@H](CC(C)C)NC(=O)OCc1ccccc1 [LLnV] (Cbz-Leu-Leu-[Nva]-aldehyde)
- level of cytosolic cytochrome c (50 μM LLnV, 6 to 8 hours): increased
- level of Bax protein (Bax/p21) (50 μM LLnV, 1 hour or longer, Western blot): increased
- Bax mRNA level (50 μM LLnV, 8 h, RT-PCR): remained unchanged
- levels of Bax/p21 and Bax-bound Bcl-2 protein (50 μM LLnV, Bax immunoprecipitation-Western blot): significantly increased
- induction of apoptosis (PARP cleavage) (50 μM LLnV, up to 8 h): cleavage of PARP
- levels of the overexpressed Bcl-2 protein (50 μM LLnV, up to 8 h): Little changes
- cytoplasmic Bax-immunofluorescent signals: markedly increased

SMILES: CC(=O)N[C@@H](CSC(=O)[C@]1([C@@H](O)C(C)C)NC(=O)[C@H](C)[C@@H]1O)C(=O)O [lactacystin]
- cytoplasmic Bax-immunofluorescent signals: markedly increased
